# Experimental data taken from US7858657B2 (Proix Pharmaceutical Corp., priority 2004, dated 2010).
# Where “and” joins values, the source holds several entries; their conditions need not be identical. Identical values can stand only once. Like-named read-outs stand apart in the source and are kept apart here. Marks after values point to notes of the source that are not given here.
# Tests used:
# [1] = Toxicity studies, blood counts in C57B1/6 mice; type: in vivo; conditions: PX-866 3 mg/kg po every other day for 15 doses
# Protocol: Toxicity Studies. […] The mice were killed 24 hr after the last dose and changes in body weight, blood lymphocyte, neutrophil, red blood cell, platelet counts, serum glucose, aspartate amino transferase (AST), and amino alanine transferase (ALT) were measured.
# Panc-1 pancreatic = test: Antitumor activity of cytotoxic drugs alone or combined with PX-866, Panc-1 pancreatic (Table 2); type: in vivo; conditions: for Alone Growth delay days / Alone TGI % / Alone log cell kill: size 75 mm^3
# [2] = Glucose tolerance studies; conditions: mean ± SE of 4 mice
# Protocol: Glucose Tolerance Studies. Female C5781/6 mice were fasted overnight and administered a single dose of D(+) glucose (1 mg/kg) as a 0.1 g/ml solution po. […] Human recombinant insulin was administered at 0.075:g/kg ip (26) at the same time as glucose administration.
# Values are the mean±SE of 4 mice per group.
# OvCaR-3 ovarian = test: Antitumor activity of cytotoxic drugs alone or combined with PX-866, OvCar-3 ovarian (Table 2); type: in vivo; conditions: for Alone Growth delay days / Alone TGI % / Alone log cell kill: size 110 mm^3
# A-549 cells = type: cell-based, human; conditions: PX-866 at concentrations up to 100 nM
# Protocol: Cells. […] All cell lines were tested to be mycoplasma free using a PCR ELISA kit (Roche Diagnostics Inc., Indianapolis, Ind.).
# [3] = Plasma insulin levels after PX-866; type: in vivo, C57B1/6 mice; conditions: PX-866 single dose of 10 mg/kg po (FIG. 10)
# Text: PX-866 and glucose tolerance.
# [4] = Nonfasting glucose levels after long term PX-866; type: in vivo, mice; conditions: PX-866 9 mg/kg iv every other day for 15 doses; ±S.E., n=4
# [5] = test system: A-549 human nsc lung cancer xenografts; test: Antitumor studies, PX-866 and gefitinib in A-549 xenografts; type: in vivo, scid mice; conditions: for Tumor T/C %, PX-844 4 hrs before gefitinib / Tumor T/C %: 100 mm3 tumors; for Tumor T/C %: end of dosing period
# Protocol: Antitumor Studies. […] When the tumors reached 100 or 600 mm3 the mice were stratified into groups of 8 animals having approximately equal mean tumor volumes and drug administration was started. […] Animals were weighed weekly and tumor diameters were measured twice weekly at right angles (d short and d long) with electronic calipers and tumor volumes calculated by the formula volume=(dshort)2×(dlong))2. When the tumor reached 2,000 mm3 or more, or became necrotic the animals were euthanized.
# In vivo antitumor studies. […] Tumors were allowed to grow to a mean volume of […] before drug treatment was started every other day for 14 doses. Antitumor activity is expressed as the % volume of the treated tumor/control tumor (T/C %) at the end of the dosing period. There were 8 mice in each group and all differences are p<0.01.
# A-549 lung = test: Antitumor activity of wortmannin analogs, A-549 lung tumor (Table 1); type: in vivo
# [6] = test system: tumor phospho-EGFR (A-549 tumor xenografts); type: in vivo, scid mice
# [7] = test system: HT-29 xenograft phosphor-Akt; test: Inhibition of HT-29 xenograft phospho-Akt by wortmannin analogs (pharmacodynamics); type: in vivo
# Protocol: The pharmacodynamics of various wortmannin analogs were tested. […] PX-866 was administered intraperitoneal, intravenously and orally.
# [8] = PX-866 iv 15 mg/kg Q3D × 3 combined with gemcitabine ip 150 mg/kg Q3D × 3
# [9] = PX-866 po 5 mg/kg Q3D × 3 combined with gemcitabine ip 150 mg/kg Q3D × 3
# [10] = PX-866 iv 12 mg/kg Q2D × 5 combined with taxol ip 12 mg/kg Q2D × 5
# [11] = PX-866 po 4 mg/kg Q2D × 5 combined with taxol ip 12 mg/kg Q2D × 5
# [12] = initial tumor vol 60 mm^3, 4 mg/kg/day po Q1D × 9
# [13] = initial tumor vol 60 mm^3, 12 mg/kg/day iv Q1D × 9
# [14] = initial tumor vol 65 mm^3, 6 mg/kg/day ip Q1D × 9
# [15] = initial tumor vol 65 mm^3, 9 mg/kg/day ip Q1D × 9
smiles,measurement,setting,value
C=CCN(/C=C1/C(=O)O[C@H](COC)[C@@]2(C)C1=C(O)C(=O)C1=C2[C@H](OC(C)=O)C[C@]2(C)C(=O)CC[C@@H]12)CC=C [PX-866],change in any other blood elements,[1],no significant change
same,neutrophil counts,"[1]; ±S.E., n=4",3.7±1.8 K/:l
same,Combined Growth delay days,Panc-1 pancreatic; [8],8 days
same,Combined TGI %,Panc-1 pancreatic; [8],49%
same,Combined log cell kill,Panc-1 pancreatic; [8],0.2
same,Combined Growth delay days,Panc-1 pancreatic; [9],19 days
same,Combined TGI %,Panc-1 pancreatic; [9],60%
same,Combined log cell kill,Panc-1 pancreatic; [9],0.5
same,Alone Growth delay days,Panc-1 pancreatic; PX-866 iv 15 mg/kg Q3D × 3,4 days
same,Alone TGI %,Panc-1 pancreatic; PX-866 iv 15 mg/kg Q3D × 3,16%
same,Alone log cell kill,Panc-1 pancreatic; PX-866 iv 15 mg/kg Q3D × 3,0.1
same,Alone Growth delay days,Panc-1 pancreatic; PX-866 po 5 mg/kg Q3D × 3,0 days
same,Alone TGI %,Panc-1 pancreatic; PX-866 po 5 mg/kg Q3D × 3,14%
same,Alone log cell kill,Panc-1 pancreatic; PX-866 po 5 mg/kg Q3D × 3,0
same,plasma glucose AUC0-180 min,"[2]; PX-866 3 mg/kg po QOD × 20, glucose 24 hours after the last dose",520 ± 14^a mg · min · ml^−1
same,plasma glucose AUC0-180 min,"[2]; PX-866 10 mg/kg po single dose, glucose 4 hours later, no other drug",533 ± 17^a mg · min · ml^−1
same,Combined Growth delay days,OvCaR-3 ovarian; [10],20 days
same,Combined TGI %,OvCaR-3 ovarian; [10],83%
same,Combined log cell kill,OvCaR-3 ovarian; [10],1.5
same,Combined Growth delay days,OvCaR-3 ovarian; [11],34 days
same,Combined TGI %,OvCaR-3 ovarian; [11],87%
same,Combined log cell kill,OvCaR-3 ovarian; [11],2.6
same,Alone Growth delay days,OvCaR-3 ovarian; PX-866 iv 12 mg/kg Q2D × 5,12 days
same,Alone TGI %,OvCaR-3 ovarian; PX-866 iv 12 mg/kg Q2D × 5,58%
same,Alone log cell kill,OvCaR-3 ovarian; PX-866 iv 12 mg/kg Q2D × 5,0.9
same,Alone Growth delay days,OvCaR-3 ovarian; PX-866 po 4 mg/kg Q2D × 5,11 days
same,Alone TGI %,OvCaR-3 ovarian; PX-866 po 4 mg/kg Q2D × 5,53%
same,Alone log cell kill,OvCaR-3 ovarian; PX-866 po 4 mg/kg Q2D × 5,0.82
same,enhancement of the growth inhibition by gefitinib,A-549 cells,did not enhance
same,duration of increase in plasma insulin levels,[3],up to 5 hr
same,nonfasting glucose levels,[4],269.4 ± 27.8 mg/dL
same,"Tumor T/C %, PX-844 4 hrs before gefitinib","[5]; PX-866 IV 4 mg/kg QOD × 14, 4 hr before gefitinib 75 mg/kg po",20.5%
same,Tumor T/C %,[5]; PX-866 IV 4 mg/kg QOD × 14 alone,65.3%
same,"Tumor T/C %, PX-844 4 hrs before gefitinib","[5]; PX-866 IV 9 mg/kg QOD × 14, 4 hr before gefitinib 75 mg/kg po",22% and 22.3%
same,Tumor T/C %,"[5]; PX-866 IV 9 mg/kg QOD × 14 alone, 9 mg/kg",31% and 31.5%
same,"Tumor T/C %, PX-844 4 hrs before gefitinib","[5]; PX-866 PO 1 mg/kg QOD × 14, 4 hr before gefitinib 75 mg/kg po",40.8%
same,Tumor T/C %,[5]; PX-866 PO 1 mg/kg QOD × 14 alone,54.8%
same,"Tumor T/C %, PX-844 4 hrs before gefitinib","[5]; PX-866 PO 2.5 mg/kg QOD × 14, 4 hr before gefitinib 75 mg/kg po",18% and 18.1%
same,Tumor T/C %,"[5]; PX-866 PO 2.5 mg/kg QOD × 14 alone, 2.5 mg/kg",41% and 40.8%
same,"combination antitumor activity, large tumors","[5]; PX-866 with gefitinib, 600 mm3 A-549 tumor xenografts (FIG. 7B)",Increased combination antitumor activity
same,tumor T/Cs,"[5]; administered long term, single agent (discussion)",around 50%
same,activity of combination with gefitinib by timing,"[5]; alternating day schedule, preliminary studies, data not shown",more active when administered 4 hr before rather than 24 hr after gefitinib
same,Growth Delay,A-549 lung; [12],6 days
same,Log10 cell kill,A-549 lung; [12],0.9
same,T/C % (optimal test/control),"A-549 lung; initial tumor vol 60 mm^3, 4 mg/kg/day po Q1D × 9, day 21",47 (21) %
same,Growth Delay,A-549 lung; [13],5 days
same,Log10 cell kill,A-549 lung; [13],0.7
same,T/C % (optimal test/control),"A-549 lung; initial tumor vol 60 mm^3, 12 mg/kg/day iv Q1D × 9, day 21",45 (21) %
same,Growth Delay,A-549 lung; [14],4 days
same,Log10 cell kill,A-549 lung; [14],0.2
same,T/C % (optimal test/control),"A-549 lung; initial tumor vol 65 mm^3, 6 mg/kg/day ip Q1D × 9, day 32",62 (32) %
same,Growth Delay,A-549 lung; [15],8 days
same,Log10 cell kill,A-549 lung; [15],0.4
same,T/C % (optimal test/control),"A-549 lung; initial tumor vol 65 mm^3, 9 mg/kg/day ip Q1D × 9, day 32",26 (32) %
same,effect upon tumor phospho-EGFR,[6]; PX-866 3 mg/kg po every other day for 5 days,no significant effect
same,effect upon tumor phospho-EGFR,[6]; PX-866 12 mg/kg iv every other day for 5 days,no significant effect
same,effect upon tumor phospho-EGFR,[6]; combination of gefitinib and PX-866,inhibited both
same,inhibition of HT-29 xenograft phosphor-Akt,"[7]; dose dependency, PX-866, PX-867 and PX-881 compared (FIG. 1A)",greatest inhibitory activity
same,inhibition of HT-29 xenograft phosphor-Akt over time by route,[7]; oral compared with intraperitoneal and intravenous (FIG. 1B),more consistent inhibition over a longer period of time
